# Assay results taken from patent publication US20130283403A1, “ZEBRAFISH SEIZURE MODEL, METHOD FOR ES[…] SAME, AND METHOD FOR SCREENING ANT[…] USING THE SAME” (NATIONAL CHENG KUNG UNIVERSITY, priority 2012, published 2013).
# Key:
# [1] = test system: ginkgotoxin-induced zebrafish seizure model; test: Screening for drugs using the ginkgotoxin-induced zebrafish seizure model; type: in vivo, zebrafish (Dania rerio, AB strain); conditions: for rescuing effect: zebrafish at six hours post fertilization treated for 3 days, FIGS. 4A and 4B
# Procedure: (§1) A solution of the ginkgotoxin is stored below −20° C. The ginkgotoxin concentrate of 40 mM is added to a fish water to keep the concentrations between 0.2 mM and 1 mM while the zebrafish seizure model is induced. The zebrafish is incubated in the fish water without ginkgotoxin for the control group.
# (§2) Pyridoxal-5′-phosphate and GABA stock solution of 40 mM are used when measuring the response of zebrafish embryos seizure model with respect to effects of ant-convulsant drugs. Anticonvulsant drugs, such as gabapentin, phenyloin, and primidone, are dissolved in DMSO to make 100 mM concentration. During experiments, anticonvulsant drugs and ginkgotoxin are added to the fish water simultaneously, or the anticonvulsant drugs are added to the fish water three hours before the zebrafish behaviors are recorded and analyzed. This will be described in detail in the following.
# (§3) The swimming behavior of zebrafish were was observed directly by naked eyes to determine the test results, and a quantified standard is made by a swimming distance and velocity of the zebrafish. At least 10 zebrafish were used for each group.
# (§4) Besides, the zebrafish embryos are placed in 200 μl fish water in a concave on microscope slide. Herein, the zebrafish embryos are observed and recorded under a high-resolution dissecting microscope (Panasonic Digital video camera, DMC-FX55GT). Further, each condition, such as the swimming distance and velocity, of zebrafish are analyzed and quantified by a locomotion tracking system (EthoVision XT8.0 locomotion tracking system® (Noldus Information Technology, Inc., Leesburg, Va., USA)). The zebrafish is incubated in the fish water without ginkgotoxin for the control group.
# Herein, GABA, PLP, gabapentin and phenyloin are used to perform experiments. The zebrafish embryos are incubated in fish water without ginkgotoxin represented as a “control group”; the zebrafish embryos are treated with ginkgotoxin represented as “GT”; the zebrafish embryos are treated simultaneously with ginkgotoxin and PLP of 0.5 mM represented as “GT+PLP”; the zebrafish embryos are treated simultaneously with ginkgotoxin and GABA of 0.5 mM represented as “GT+GABA”; the zebrafish embryos are treated simultaneously with ginkgotoxin and gabapentin of 1 mM represented as “GT+gabapentin”; the zebrafish embryos are treated simultaneously with ginkgotoxin and phenyloin of 1 mM represented as “GT+phenyloin”. The results are shown in FIGS. 2A to 4B, wherein, FIG. 2A and FIG. 2B are results showing that zebrafish at 3 days post fertilization of the example are treated for 2 hours; FIG. 3A and FIG. 3B are results showing that zebrafish at 5 days post fertilization of the example are treated for 2 hours; FIG. 4A and FIG. 4B are results that zebrafish at 6 hours post fertilization of the example were treated for 3 days. These indicate aggrevated seizure and convulsion when the swimming distance is longer and swimming velocity is faster transitorily.
# Here, a comparison between the zebrafish seizure model induced by PTZ and one induced by ginkgotoxin is drawn. Wherein, the zebrafish embryos incubated in fish water without ginkgotoxin represented as a “control group”; the zebrafish embryos only treated with ginkgotoxin represented as “GT”; the zebrafish embryos treated only with PTZ of 0.5 mM represented as “PTZ”; the zebrafish embryos treated simultaneously with ginkgotoxin and DMSO represented as “GT+DMSO”; the zebrafish embryos treated simultaneously with PTZ and DMSO represented as “PTZ+DMSO”; the zebrafish embryos treated simultaneously with ginkgotoxin and gabapentin of 2 mM represented as “GT+gabapentin”; the zebrafish embryos treated simultaneously with PTZ and phenyloin of 2 mM represented as “PTZ+phenyloin”; the zebrafish embryos treated simultaneously with GT and folic acid of 1 mM represented as […]; the zebrafish embryos treated simultaneously with PTZ and folic acid of 1 mM is indicated as “PTZ+folic acid”. […]
# zebrafish larvae = test: Establishing the zebrafish seizure model with ginkgotoxin; type: in vivo, zebrafish (Dania rerio, AB strain)
# Procedure: as §1, §3, §4
# To induce seizures, the zebrafish larvae at 5 days post fertilization (5-dpf) are placed in fish water containing ginkgotoxin of various concentrations (0.2 mM to 1 mM) and ecorded and analyzed 2 hours later. […]
# [2] = test system: PTZ-induced zebrafish seizure model; test: Zebrafish seizure model induced by PTZ; type: in vivo, zebrafish (Dania rerio, AB strain); conditions: model induced by PTZ 0.5 mM, FIGS. 5A and 5B
# Procedure: as §2, §3
# as §4, with “group. […]” for “group.”
# [3] = test system: PTZ-induced zebrafish seizure model; conditions: current experimental data; cited from earlier work
# [4] = 0.5 mM added simultaneously with ginkgotoxin 0.5 mM, FIGS. 2A to 4B
# [5] = 1 mM added simultaneously with ginkgotoxin 0.5 mM, regardless of embryonic stage, FIGS. 2A to 4B
smiles,measurement,setting,value
"NCCCC(=O)O [GABA, gamma-aminobutyric acid]",conditions of seizure and convulsion (swimming distance and velocity),[1]; [4],alleviated with a greater extent
same,rescuing effect,[1]; 0.5 mM with ginkgotoxin,most obvious signs of rescuing effect
"Cc1ncc(COP(=O)(O)O)c(C=O)c1O [PLP, Pyridoxal-5′-phosphate]",conditions of seizure and convulsion (swimming distance and velocity),[1]; [4],alleviated with a greater extent
same,rescuing effect,[1]; 0.5 mM with ginkgotoxin,most obvious signs of rescuing effect
NCC1(CC(=O)O)CCCCC1 [gabapentin],conditions of seizure and convulsion (swimming distance and velocity),[1]; [5],alleviated with greater extent
same,rescuing effect,[1]; 1 mM with ginkgotoxin,most obvious signs of rescuing effect
"COCc1c(CO)cnc(C)c1O [ginkgotoxin, 4-O-methylpyridoxine]",lower dose at which the zebrafish seizure model can be established,"zebrafish larvae; 5-dpf larvae, after incubating for 2 hours, FIG. 1B",0.2 mM
same,concentration at which the zebrafish seizure model can be established steadily,"zebrafish larvae; zebrafish larvae at 5 days post fertilization, in fish water, FIGS. 1A and 1B",500 µM
same,state of zebrafish treated with ginkgotoxin (swimming distance and velocity),"[1]; 0.5 mM, 3 dpf or 5 dpf treated 2 hours, 6 hpf treated 3 days, FIGS. 2A to 4B",states of seizure or convulsion
O=C1NC(=O)C(c2ccccc2)(c2ccccc2)N1 [phenyloin],conditions of seizure and convulsion (swimming distance and velocity),[1]; [5],alleviated with greater extent
same,rescuing effect,[1]; 1 mM with ginkgotoxin,most obvious signs of rescuing effect
CCC1(c2ccccc2)C(=O)NCNC1=O [primidone],detection as antiepileptic or anti-convulsion drug (seizure stage 0/I/II),"[1]; model induced by ginkgotoxin, FIGS. 5A and 5B",enable to screen out
same,detection as antiepileptic or anti-convulsion drug (seizure stage 0/I/II),[2],could not be accomplished
same,response of the PTZ-induced seizure model to the drug,[3],does not respond
